Experimental data reported in ChEMBL document CHEMBL3044769, “A brief synthesis of natural antifeedant, 1-(2,4,6-trimethoxyphenyl) but-2(E)-en-1-one” (1994).

Tested on: Spodoptera litura
Assay: Antifeedant activity in Spodoptera litura assessed as feeding ratio at 0.1% of the diet
Assay type: functional

C/C=C/C(=O)c1c(OC)cc(OC)cc1OC
Activity: 50.5%
